“And” between values parts separate entries of the source, which are not always exact repeats. Equal entries are not always repeated.
How the values were obtained:
[1] = refractive index (Na D-line) (dimensionless); conditions: 101.33 kPa, Liquid, Standard Abbe refractometry
[2] = 101.33 kPa, Liquid; for electrical conductivity: Alternating current cell with electrodes; for viscosity: Falling or rolling sphere viscometry; for mass density: Vibrating tube method

CC[S+](CC)CC.O=S(=O)([N-]S(=O)(=O)C(F)(F)F)C(F)(F)F [triethylsulfonium bis((trifluoromethyl)sulfonyl)imide]
Conditions | electrical conductivity [S/m] | mass density [kg/m3] | refractive index | viscosity [mPa·s]
[1], 283.15 K | – | – | 1.4308 | –
[1], 288.15 K | – | – | 1.4293 | –
[1], 293.15 K | – | – | 1.4279 | –
[1], 298.15 K | – | – | 1.4264 | –
[1], 303.15 K | – | – | 1.4249 | –
[1], 308.15 K | – | – | 1.4234 | –
[1], 313.15 K | – | – | 1.4219 | –
[1], 318.15 K | – | – | 1.4204 | –
[1], 323.15 K | – | – | 1.419 | –
[1], 328.15 K | – | – | 1.4175 | –
[1], 333.15 K | – | – | 1.4161 | –
[1], 338.15 K | – | – | 1.4148 | –
[1], 343.15 K | – | – | 1.4134 | –
[2], 258.15 K | 0.0992 | – | – | –
[2], 268.15 K | 0.186 | – | – | –
[2], 278.15 K | 0.314 | 1479.69 | – | 80.5
[2], 288.15 K | 0.487 | 1469.86 | – | 49.88
[2], 298.15 K | 0.708 | 1460.14 | – | 33.36
[2], 308.15 K | 0.975 | 1450.51 | – | 23.5
[2], 318.15 K | 1.29 | 1440.97 | – | 17.34
[2], 328.15 K | 1.64 | 1431.52 | – | 13.26
[2], 338.15 K | 2.03 | 1422.15 | – | 10.44
[2], 348.15 K | 2.46 | – | – | 8.445
[2], 358.15 K | 2.91 | – | – | 6.963
[2], 368.15 K | 3.4 | – | – | 5.849
[2], 378.15 K | 3.92 | – | – | 4.99
[2], 388.15 K | 4.43 | – | – | 4.312
[2], 398.15 K | 5 | – | – | 3.768
[2], 408.15 K | 5.58 | – | – | –
[2], 418.15 K | 6.16 | – | – | –
[2], 428.15 K | 6.76 | – | – | –
[2], 438.15 K | 7.37 | – | – | –
[2], 448.15 K | 7.98 | – | – | –
[2], 458.15 K | 8.59 | – | – | –
[2], 468.15 K | 9.17 | – | – | –

CCCC[N+]1(C)CCCC1.N#CN=C=[N-] [1-butyl-1-methylpyrrolidinium dicyanamide]
Conditions | electrical conductivity, [2] | mass density, [2] | refractive index, [1] | viscosity, [2]
238.15 K | 0.0337 S/m | – | – | –
248.15 K | 0.081 S/m and 0.102 S/m | – | – | –
258.15 K | 0.166 S/m and 0.2 S/m | – | – | –
268.15 K | 0.299 S/m and 0.352 S/m | – | – | –
278.15 K | 0.49 S/m and 0.566 S/m | 1029 kg/m3 and 1024.78 kg/m3 | – | 95.5 mPa·s and 80.15 mPa·s
288.15 K | 0.746 S/m and 0.844 S/m | 1023.24 kg/m3 and 1019.06 kg/m3 | 1.4862 | 61.23 mPa·s and 51.72 mPa·s
293.15 K | – | – | 1.4853 | –
298.15 K | 1.07 S/m and 1.19 S/m | 1017.56 kg/m3 and 1013.4 kg/m3 | 1.4847 | 41.78 mPa·s and 35.85 mPa·s
303.15 K | – | – | 1.4842 | –
308.15 K | 1.46 S/m and 1.61 S/m | 1011.95 kg/m3 and 1007.81 kg/m3 | 1.4836 | 29.99 mPa·s and 25.93 mPa·s
313.15 K | – | – | 1.4832 | –
318.15 K | 1.92 S/m and 2.08 S/m | 1006.4 kg/m3 and 1002.27 kg/m3 | 1.4826 | 21.44 mPa·s and 19.43 mPa·s
323.15 K | – | – | 1.4818 | –
328.15 K | 2.44 S/m and 2.63 S/m | 1000.91 kg/m3 and 996.796 kg/m3 | 1.481 | 16.47 mPa·s and 15 mPa·s
333.15 K | – | – | 1.48 | –
338.15 K | 3.02 S/m and 3.23 S/m | 995.474 kg/m3 and 991.368 kg/m3 | 1.479 | 13.08 mPa·s and 11.84 mPa·s
343.15 K | – | – | 1.4779 | –
348.15 K | 3.88 S/m | 985.987 kg/m3 | – | 10.57 mPa·s and 9.634 mPa·s
358.15 K | 4.58 S/m | 980.656 kg/m3 | – | 8.801 mPa·s and 8.017 mPa·s
368.15 K | 5.32 S/m | – | – | 7.467 mPa·s and 6.774 mPa·s
378.15 K | 6.11 S/m | – | – | 6.444 mPa·s and 5.761 mPa·s
388.15 K | 6.93 S/m | – | – | 5.605 mPa·s and 5.001 mPa·s
398.15 K | 7.78 S/m | – | – | 4.956 mPa·s and 4.386 mPa·s
408.15 K | 8.67 S/m | – | – | 3.905 mPa·s
418.15 K | 9.57 S/m | – | – | –
428.15 K | 10.5 S/m | – | – | –
438.15 K | 11.4 S/m | – | – | –
448.15 K | 12.3 S/m | – | – | –

CC[S+](C)CC.O=S(=O)([N-]S(=O)(=O)C(F)(F)F)C(F)(F)F [diethylmethylsulfonium bis[(trifluoromethyl)sulfonyl]imide]
Conditions | electrical conductivity, [2] [S/m] | mass density, [2] [kg/m3] | refractive index, [1] | viscosity, [2] [mPa·s]
258.15 K | 0.0975 | – | – | –
268.15 K | 0.182 | – | – | –
278.15 K | 0.305 | 1520.53 | – | 98.6
283.15 K | – | – | 1.4276 | –
288.15 K | 0.473 | 1510.56 | 1.4262 | 61.05
293.15 K | – | – | 1.4247 | –
298.15 K | 0.688 | 1500.71 | 1.4233 | 40.71
303.15 K | – | – | 1.4219 | –
308.15 K | 0.95 | 1490.96 | 1.4204 | 28.55
313.15 K | – | – | 1.419 | –
318.15 K | 1.26 | 1481.3 | 1.4175 | 20.95
323.15 K | – | – | 1.4161 | –
328.15 K | 1.61 | 1471.73 | 1.4146 | 15.73
333.15 K | – | – | 1.4132 | –
338.15 K | 2 | 1462.25 | 1.4118 | 12.34
343.15 K | – | – | 1.4103 | –
348.15 K | 2.43 | – | – | 9.945
358.15 K | 2.88 | – | – | 8.183
368.15 K | 3.37 | – | – | 6.826
378.15 K | 3.89 | – | – | 5.793
388.15 K | 4.43 | – | – | 4.981
398.15 K | 4.99 | – | – | 4.331
418.15 K | 6.16 | – | – | –
438.15 K | 7.38 | – | – | –
458.15 K | 8.63 | – | – | –

CCCCCCCC[N+](C)(CCCCCCCC)CCCCCCCC.O=C([O-])C(F)(F)F [methyltrioctylammonium trifluoroacetate]
[2]
Conditions | electrical conductivity [S/m] | mass density [kg/m3] | viscosity [mPa·s]
288.15 K | – | – | 3629
298.15 K | 0.00155 | 962.478 | 1551
303.15 K | – | 959.262 | –
308.15 K | 0.00329 | 956.054 | 735.2
313.15 K | – | 952.805 | –
318.15 K | 0.0063 | 949.626 | 380.8
323.15 K | – | 946.478 | –
328.15 K | 0.0112 | 943.335 | 212.1
333.15 K | – | 940.189 | –
338.15 K | 0.0185 | 937.046 | 126.7
343.15 K | – | 933.904 | –
348.15 K | 0.0293 | 930.772 | 79.97
353.15 K | – | 927.648 | –
358.15 K | 0.0444 | 924.529 | 53.33
363.15 K | – | 921.418 | –
368.15 K | 0.0647 | – | 36.92
378.15 K | 0.0924 | – | 26.69
388.15 K | 0.125 | – | 19.8
398.15 K | – | – | 15.03

CCCC[n+]1ccccc1.O=S(=O)([N-]S(=O)(=O)C(F)(F)F)C(F)(F)F [1-butylpyridinium bis[(trifluoromethyl)sulfonyl]imide]
Conditions | electrical conductivity, [2] [S/m] | mass density, [2] [kg/m3] | refractive index, [1] | viscosity, [2] [mPa·s]
278.15 K | 0.119 | 1467.88 | – | 182.1
283.15 K | – | – | 1.4474 | –
288.15 K | 0.206 | 1458.26 | 1.4459 | 100.9
293.15 K | – | – | 1.4444 | –
298.15 K | 0.326 | 1448.74 | 1.4429 | 61.39
303.15 K | – | – | 1.4414 | –
308.15 K | 0.483 | 1439.32 | 1.4399 | 40.14
313.15 K | – | – | 1.4384 | –
318.15 K | 0.677 | 1430.02 | 1.4369 | 27.9
323.15 K | – | – | 1.4354 | –
328.15 K | 0.909 | 1420.8 | 1.4339 | 20.36
333.15 K | – | – | 1.4324 | –
338.15 K | 1.17 | 1411.66 | 1.4309 | 15.42
343.15 K | – | – | 1.4294 | –
348.15 K | 1.47 | 1402.6 | – | 12.04
358.15 K | 1.8 | 1393.63 | – | 9.663
368.15 K | 2.16 | – | – | 7.904
378.15 K | 2.54 | – | – | –
388.15 K | 2.94 | – | – | –
398.15 K | 3.37 | – | – | –
418.15 K | 4.27 | – | – | –
438.15 K | 5.24 | – | – | –

From the NIST ThermoML archive (doi:10.1021/acs.jced.7b00060)
